Measured values taken from US10710996B2, “Pyrido-azaheterecydic compound and preparation method and use thereof” (SHANGHAI INSTITUTE OF MATERIA MEDICA, CHINESE ACADEMY OF …, priority 2015, dated 2020).

Key:
EBC-1 cells = test: Inhibition of c-Met-mediated EBC-1 cell proliferation (SRB staining); assay type: cell-based; settings: Homo sapiens, 72 hours treatment
Procedure: The inhibitory effect of the compounds on the growth of non-small cell cancer EBC-1 cell (a cell line in which Met is continually activated due to the amplification of MET gene, and is a Met-dependent tumor cell line) was measured by sulforhodamine B (SRB) staining assay. A certain amount of EBC-1 cells in their logarithmic growth phase were seeded in 96-well plates at 90 μL per well and cultured overnight, then 10 μL of different concentrations of compounds or solvent control were added thereto, three wells for each concentration. After treated by the compound for 72 hours, the adherent cells were removed of culture medium and fixed with 10% (w/v) trichloroacetic acid (100 μL/well) at 4° C. for 1 hr followed by rinsing with distilled water five times. After drying at room temperature, 100 μL of SRB solution (dissolved in 1% glacial acetic acid at 4 mg/mL) was added to each well to incubate and stain the cells for 15 min at room temperature, then unbound SRB was washed off with 1% glacial acetic acid for five times. After drying at room temperature, 100 μL of 10 mM Tris solution was added to each well. The optical density (OD value) at 515 nm was read on a VERSMax microplate reader. […] The experiment was repeated twice. The IC50 data was calculated as a range based on the test results of concentrations set in the initial screening test.

c-Met kinase = target: T1, c-Met kinase (Homo sapiens, UniProt P08581); test: Inhibitory effect on c-Met kinase activity at molecular level (ELISA); assay type: biochemical;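 also: recombinant c-Met kinase domain with 5 µM ATP, 1 h at 37 °C, substrate phosphorylation detected by anti-phosphotyrosine PY99 ELISA at 490 nm versus DMSO negative control, ATP-free wells as blank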
T1 construct: c-Met kinase domain recombinant protein diluted with 49 μL of the reaction buffer was added
T1 sequence (P08581 1078-1345 limits assumed): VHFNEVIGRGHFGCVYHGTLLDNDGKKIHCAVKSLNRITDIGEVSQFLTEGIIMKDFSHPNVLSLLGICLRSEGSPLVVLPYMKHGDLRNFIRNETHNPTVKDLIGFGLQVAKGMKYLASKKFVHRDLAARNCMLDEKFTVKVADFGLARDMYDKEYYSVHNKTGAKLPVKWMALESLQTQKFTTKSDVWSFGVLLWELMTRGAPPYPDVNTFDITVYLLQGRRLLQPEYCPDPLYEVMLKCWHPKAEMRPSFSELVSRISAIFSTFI

SMILES | IC50 (EBC-1 cells) [nM] | IC50 (c-Met kinase) [nM]
O=C(Nc1ccc(F)cc1)C1(C(=O)Nc2ccc(Oc3ccnc4cc(Cl)ncc34)c(F)c2)CC1 [Compound 1S, N-(4-((7-chloro-1,6-naphthyridin-4-yl)oxy)-3-fluorophenyl)-N-(4-fluorophenyl) cyclopropyl-1,1-dicarboxamide] | 100 to 1000 | 1000 to 10000
CN(C)c1cc2nccc(Oc3ccc(NC(=O)C4(C(=O)Nc5ccc(F)cc5)CC4)cc3F)c2cn1 [Compound 2S, N-(4-((7-(dimethylamino)-1,6-naphthyridin-4-yl)oxy)-3-fluorophenyl)-N-(4-fluorophenyl)cyclopropyl-1,1-dicarboxamide] | 10 to 100 | 1 to 10
COc1cc2nccc(Oc3ccc(NC(=O)C4(C(=O)Nc5ccc(F)cc5)CC4)cc3F)c2cn1 [Compound 3S, N-(4-((7-methoxy-1,6-naphthyridin-4-yl)oxy)-3-fluorophenyl)-N-(4-fluorophenyl)cyclopropyl-1,1-dicarboxamide] | 100 to 1000 | 1 to 10
CN1CCC(COc2cc3nccc(Oc4ccc(NC(=O)C5(C(=O)Nc6ccc(F)cc6)CC5)cc4F)c3cn2)CC1 [Compound 9S, N-(3-fluoro-4-((7-((1-methylpiperidin-4-yl)methoxy)-1,6-naphthyridin-4-yl)oxy)phenyl)-N-(4-fluorophenyl) cyclopropyl-1,1-dicarboxamide] | 10 to 100 | 1 to 10
CN1CCN(CCOc2cc3nccc(Oc4ccc(NC(=O)C5(C(=O)Nc6ccc(F)cc6)CC5)cc4F)c3cn2)CC1 [Compound 11S, N-(3-fluoro-4-((7-(2-(4-methylpiperazin-1-yl)ethoxy)-1,6-naphthyridin-4-yl)oxy)phenyl)-N-(4-fluorophenyl) cyclopropyl-1,1-dicarboxamide] | 100 to 1000 | 1 to 10
O=C(Nc1ccc(F)cc1)C1(C(=O)Nc2ccc(Oc3ccnc4cc(OCCN5CCOCC5)ncc34)cc2)CC1 [Compound 12S, N-(4-fluorophenyl)-N-(4-((7-(2-morpholinoethoxy)-1,6-naphthyridin-4-yl)oxy)phenyl)cyclopropyl-1,1-dicarboxamide] | 100 to 1000 | 1 to 10
O=C(Nc1ccc(F)cc1)C1(C(=O)Nc2ccc(Nc3ccnc4cc(OCCN5CCOCC5)ncc34)cc2)CC1 [Compound 13S, N-(4-fluorophenyl)-N-(4-((7-(2-morpholinoethoxy)-1,6-naphthyridin-4-yl)amino)phenyl)cyclopropyl-1,1-dicarboxamide] | 100 to 1000 | 1 to 10
O=C(Nc1ccc(Oc2ccnc3cc(OCCN4CCOCC4)ncc23)c(F)c1)c1cccn(-c2ccc(F)cc2)c1=O [Compound 15S, N-(3-fluoro-4-((7-(2-morpholinoethoxy)-1,6-naphthyridin-4-yl)oxy)phenyl)-1-(4-fluorophenyl)-2-oxo-1,2-dihydropyridine-3-carboxamide] | 10 to 100 | 1 to 10
O=C(Nc1ccc(Oc2ccnc3cc(OCCN4CCOCC4)ncc23)c(F)c1)c1c[nH]cc(-c2ccccc2)c1=O [Compound 20S, N-(3-fluoro-4-((7-(2-morpholinoethoxy)-1,6-naphthyridin-4-yl)oxy)phenyl)-4-oxo-5-phenyl-1,4-dihydropyridine-3-carboxamide] | 10 to 100 | 1 to 10
O=C(Nc1ccc(Oc2ccnc3cc(OCCN4CCOCC4)ncc23)c(F)c1)c1c[nH]cc(-c2ccc(F)cc2)c1=O [Compound 22S, N-(3-fluoro-4-((7-(2-morpholinoethoxy)-1,6-naphthyridin-4-yl)oxy)phenyl)-5-(4-fluorophenyl)-4-oxo-1,4-dihydropyridine-3-carboxamide] | 10 to 100 | 1 to 10
O=C(Nc1ccc(F)c(F)c1)C1(C(=O)Nc2ccc(Oc3ccnc4cc(OCCN5CCOCC5)ncc34)c(F)c2)CC1 [Compound 23S, N-(3,4-difluorophenyl)-N-(3-fluoro-4-((7-(2-morpholinoethoxy)-1,6-naphthyridin-4-yl)oxy)phenyl) cyclopropyl-1,1-dicarboxamide] | 100 to 1000 | 1 to 10
COc1cc(NC(=O)C2(C(=O)Nc3ccc(Oc4ccnc5cc(OCCN6CCOCC6)ncc45)c(F)c3)CC2)ccc1F [Compound 24S, N-(4-fluoro-3-methoxyphenyl)-N-(3-fluoro-4-((7-(2-morpholinoethoxy)-1,6-naphthyridin-4-yl)oxy)phenyl) cyclopropyl-1,1-dicarboxamide] | 100 to 1000 | 1 to 10
O=C(Nc1ccc(F)cc1)C1(C(=O)Nc2ccc(Oc3ccnc4cc(OCCc5ccncc5)ncc34)c(F)c2)CC1 [Compound 25S, N-(3-fluoro-4-((7-(2-(pyridin-4-yl)ethoxy)-1,6-naphthyridin-4-yl)oxy)phenyl)-N-(4-fluorophenyl)cyclopropyl-1,1-dicarboxamide] | 100 to 1000 | 1 to 10
CC(CN1CCOCC1)Oc1cc2nccc(Oc3ccc(NC(=O)C4(C(=O)Nc5ccc(F)cc5)CC4)cc3F)c2cn1 (centres unmarked) [Compound 26S, N-(3-fluoro-4-((7-((1-morpholinopropan-2-yl)oxy)-1,6-naphthyridin-4-yl)oxy)phenyl)-N-(4-fluorophenyl) cyclopropyl-1,1-dicarboxamide] | 100 to 1000 | 10 to 100
O=C1COCCN1CCOc1cc2nccc(Oc3ccc(NC(=O)C4(C(=O)Nc5ccc(F)cc5)CC4)cc3F)c2cn1 [Compound 37S, N-(3-fluoro-4-((7-(2-(3-oxomorpholino)ethoxy)-1,6-naphthyridin-4-yl)oxy)phenyl)-N-(4-fluorophenyl) cyclopropyl-1,1-dicarboxamide] | 10 to 100 | 1 to 10
Cn1cc(-c2cc3nccc(Oc4ccc(NC(=O)C5(C(=O)Nc6ccc(F)cc6)CC5)cc4F)c3cn2)cn1 [Compound 38S, N-(3-fluoro-4-((7-(1-methyl-1H-pyrazol-4-yl)-1,6-naphthyridin-4-yl)oxy)phenyl)-N-(4-fluorophenyl)cyclopropyl-1,1-dicarboxamide] | 1 to 10 | 1 to 10
O=C(Nc1ccc(F)cc1)C1(C(=O)Nc2ccc(Oc3ccnc4cc(-c5cn[nH]c5)ncc34)c(F)c2)CC1 [Compound 39S, N-(4-((7-(1H-pyrazol-4-yl)-1,6-naphthyridin-4-yl)oxy)-3-fluorophenyl)-N-(4-fluorophenyl)cyclopropyl-1,1-dicarboxamide] | 1 to 10 | 1 to 10
CS(=O)(=O)n1cc(-c2cc3nccc(Oc4ccc(NC(=O)C5(C(=O)Nc6ccc(F)cc6)CC5)cc4F)c3cn2)cn1 [Compound 40S, N-(3-fluoro-4-((7-(1-(methylsulfonyl)-1H-pyrazol-4-yl)-1,6-naphthyridin-4-yl)oxy)phenyl)-N-(4-fluorophenyl) cyclopropyl-1,1-dicarboxamide] | 10 to 100 | 1 to 10
CC(C)n1cc(-c2cc3nccc(Oc4ccc(NC(=O)C5(C(=O)Nc6ccc(F)cc6)CC5)cc4F)c3cn2)cn1 [Compound 41S, N-(3-fluoro-4-((7-(1-isopropyl-1H-pyrazol-4-yl)-1,6-naphthyridin-4-yl)oxy)phenyl)-N-(4-fluorophenyl) cyclopropyl-1,1-dicarboxamide] | 1 to 10 | 1 to 10
O=C(Nc1ccc(F)cc1)C1(C(=O)Nc2ccc(Oc3ccnc4cc(-c5cnn(C6CCNCC6)c5)ncc34)c(F)c2)CC1 [Compound 42S, N-(3-fluoro-4-((7-(1-(piperidin-4-yl)-1H-pyrazol-4-yl)-1,6-naphthyridin-4-yl)oxy)phenyl)-N-(4-fluorophenyl) cyclopropyl-1,1-dicarboxamide] | 1 to 10 | 1 to 10
CC(C)N1CCC(n2cc(-c3cc4nccc(Oc5ccc(NC(=O)C6(C(=O)Nc7ccc(F)cc7)CC6)cc5F)c4cn3)cn2)CC1 [Compound 43S, N-(3-fluoro-4-((7-(1-(1-isopropylpiperidin-4-yl)-1H-pyrazol-4-yl)-1,6-naphthyridin-4-yl)oxy)phenyl)-N-(4-fluorophenyl)cyclopropyl-1,1-dicarboxamide] | 100 to 1000 | 1 to 10
O=C(Nc1ccc(F)cc1)C1(C(=O)Nc2ccc(Oc3ccnc4cc(-c5cnoc5)ncc34)c(F)c2)CC1 [Compound 51S] |  | 1 to 10
O=C(Nc1ccc(F)cc1)C1(C(=O)Nc2ccc(Oc3ccnc4cc(-c5ccsn5)ncc34)c(F)c2)CC1 [Compound 52S] |  | 100 to 1000
Cn1cc(-c2cc3nccc(Oc4ccc(NC(=O)c5cccn(-c6ccc(F)cc6)c5=O)cc4F)c3cn2)cn1 [Compound 53S, N-(3-fluoro-4-((7-(1-methyl-1H-pyrazol-4-yl)-1,6-naphthyridin-4-yl)oxy)phenyl)-1-(4-fluorophenyl)-2-oxo-1,2-dihydropyridine-3-carboxamide] |  | 10 to 100
O=C(Nc1ccc(F)cc1)C1(C(=O)Nc2ccc(Oc3ccnc4nc(OCCCN5CCOCC5)cnc34)c(F)c2)CC1 [Compound 61S, N-(3-fluoro-4-((3-(3-morpholinopropoxy)pyrido[2,3-b]pyrazin-8-yl)oxy)phenyl)-N-(4-fluorophenyl)cyclopropyl-1,1-dicarboxamide] |  | 10 to 100
CN1CCN(CCOc2cnc3nccc(Oc4ccc(NC(=O)C5(C(=O)Nc6ccc(F)cc6)CC5)cc4F)c3n2)CC1 [Compound 66S, N-(3-fluoro-4-((2-(2-(4-methylpiperazin-1-yl)ethoxy)pyrido[2,3-b]pyrazin-8-yl)oxy)phenyl)-N-(4-fluorophenyl) cyclopropyl-1,1-dicarboxamide] | 1000 to 10000 | 
